Laboratory results reported in the CheMixHub drug solubility set.

Experiment: xn = mol fraction of the nth substance listed, in the solute-free solvent

O=C(O)c1ccc(-n2nc(-c3ccccc3O)nc2-c2ccccc2O)cc1 + CC(O)CO + CC#N
298.15 K
Conditions | solubility (g/100 g solution)
x2 = 0.05655 | 2.43
x2 = 0.1188 | 4.43
x2 = 0.1878 | 6.62
x2 = 0.2645 | 8.48
x2 = 0.3504 | 9.81
x2 = 0.4473 | 10.7
x2 = 0.5573 | 11.3
x2 = 0.6833 | 11.4
x2 = 0.8292 | 11

O=C(O)c1ccc(-n2nc(-c3ccccc3O)nc2-c2ccccc2O)cc1 + CC(O)CO + CCO
298.15 K
Conditions | solubility (g/100 g solution)
x2 = 0.06303 | 11.6
x2 = 0.1315 | 12.2
x2 = 0.206 | 12.8
x2 = 0.2875 | 13.4
x2 = 0.3771 | 13.7
x2 = 0.4759 | 13.4
x2 = 0.5855 | 12.4
x2 = 0.7077 | 11.2
x2 = 0.8449 | 10.1

O=C(O)c1ccc(-n2nc(-c3ccccc3O)nc2-c2ccccc2O)cc1 + CC(O)CO + CO
298.15 K
Conditions | solubility (g/100 g solution)
x2 = 0.0447 | 13.5
x2 = 0.09525 | 14.2
x2 = 0.1529 | 14.4
x2 = 0.2192 | 14.6
x2 = 0.2963 | 14.2
x2 = 0.3871 | 13.7
x2 = 0.4956 | 12.9
x2 = 0.6275 | 11.8
x2 = 0.7912 | 10.4

Cc1nc(C)c(C)nc1C + CCCCO + CC#N
solubility (g/100 g solution)
Conditions | 273.15 K | 278.15 K | 283.15 K | 288.15 K | 293.15 K | 298.15 K | 303.15 K | 308.15 K | 313.15 K
x2 = 0.1 | 14 | 16.4 | 19.4 | 21.5 | 27.1 | 29.5 | 36.1 | 39.3 | 44.2
x2 = 0.2 | 18.3 | 21 | 23.4 | 27.1 | 31.6 | 34.6 | 39.8 | 43.8 | 48.2
x2 = 0.3 | 21.2 | 24.6 | 26.9 | 30.9 | 35.3 | 38.2 | 42.8 | 46.6 | 50.5
x2 = 0.4 | 22.8 | 25.9 | 28.7 | 33 | 37.8 | 40.3 | 44.8 | 48.5 | 52.8
x2 = 0.5 | 23.7 | 26.6 | 30.4 | 34 | 39.2 | 41.5 | 45.7 | 49.3 | 53.6
x2 = 0.6 | 24.5 | 26.1 | 30.6 | 34.2 | 39.4 | 41.6 | 45.7 | 50 | 53.9
x2 = 0.7 | 24.3 | 25.7 | 30.1 | 33.6 | 39.3 | 41.5 | 44.8 | 50.1 | 53.6
x2 = 0.8 | 23.5 | 24.9 | 29.4 | 33 | 38.4 | 41 | 43.8 | 49.6 | 53
x2 = 0.9 | 21.8 | 23.6 | 27.9 | 30.6 | 36.3 | 39.2 | 41.8 | 47.9 | 51.3

CCc1cccc2c3c([nH]c12)C(CC)(CC(=O)O)OCC3 (stereo not drawn) + CCCCOC(C)=O + CCCCCC
solubility (g/100 g solution)
Conditions | 278.15 K | 283.15 K | 288.15 K | 293.15 K | 298.15 K | 303.15 K | 308.15 K | 313.15 K | 318.15 K | 323.15 K
x2 = 0.1568 | 0.52 | 0.667 | 0.805 | 0.936 | 1.08 | 1.23 | 1.41 | 1.62 | 1.86 | 2.07
x2 = 0.3309 | 3.1 | 3.48 | 3.93 | 4.43 | 5 | 5.64 | 6.39 | 7.21 | 8.15 | 9.12
x2 = 0.5268 | 4.5 | 5.13 | 5.79 | 6.5 | 7.27 | 8.13 | 9.13 | 10.2 | 11.5 | 12.9
x2 = 0.7478 | 7.51 | 8.4 | 9.35 | 10.4 | 11.5 | 12.8 | 14.2 | 15.8 | 17.5 | 19.4

CCc1cccc2c3c([nH]c12)C(CC)(CC(=O)O)OCC3 (stereo not drawn) + CCCO + CCCCCC
solubility (g/100 g solution)
Conditions | 278.15 K | 283.15 K | 288.15 K | 293.15 K | 298.15 K | 303.15 K | 308.15 K | 313.15 K | 318.15 K | 323.15 K
x2 = 0.2645 | 3.73 | 4.25 | 4.84 | 5.55 | 6.34 | 7.19 | 8.14 | 9.21 | 10.4 | 11.7
x2 = 0.4889 | 7.29 | 8.31 | 9.43 | 10.8 | 12.2 | 14 | 15.9 | 18.1 | 20.6 | 23.4
x2 = 0.6827 | 10.4 | 11.8 | 13.4 | 15.2 | 17 | 19.4 | 22.2 | 25.3 | 28.6 | 31.9
x2 = 0.8514 | 12.8 | 14.4 | 16.5 | 18.7 | 21.5 | 24.5 | 27.9 | 31.4 | 35.1 | 38.5
